Assay results: patent publication EP3248604A1, “AGENTS FOR MODULATION OF WNT-TCF SIGNALLING AND USES THEREOF” (UNIVERSITE DE GENEVE, priority 2016, dated 2017)

What was measured:
Type in all cases: cell-based, human
WNT-TCF targets [1] = assay: RT-qPCR in cells dissociated from DLD1 xenograft tumors, treated in vitro; details: 16h, vs DMSO
Procedure: (§1) RT-qPCR was performed as in Melotti et al. (2014, supra) using BioRad equipment and reagents. Cells cultured in nitro were treated with the desired concentration of drug in DMEM-F12 and reduced serum (2.5% FBS) for 16h, unless otherwise noted, and collected in Trizol (Sigma) before total RNA extraction and cDNA synthesis. Primers were as in Table 1. HPRT (gene encoding Hypoxanthine phosphoribosyltransferase 1) and βACTIN were used as housekeeping controls for normalization.
Four DLD1 regressed tumors were monitored after cessation of CAP2 treatment to determine recurrence after drug withdrawal. […] Tumor regrowth, however, could be due in principle to insufficient drug dosage or to the development of drug resistance. To test these possibilities the recurrent tumor was thus excised and the cells plated in vitro to test for the possible development of CAP2 resistance. One control in vivo cyclodextrin-treated tumor taken before reaching the legal (at around 21 day) limit was similarly processed to serve as control. […] The levels of WNT-TCF targets were generally lower in cells derived from tumors that were exposed in vivo to CAP2 in comparison to those in cells from tumors that were not treated with CAP2 (Figure 10). […] This consistent difference in the levels of several WNT-TCF targets raised the possibility that whereas tumor recurrence might be due to incomplete initial dosage, the recurring tumor harbored the memory of previous CAP2 treatment.

Epigenetic regulators = assay: RT-qPCR of epigenetic regulators in U87 cells; details: 0.5 µM
Procedure: as §1
The WNT-TCF-independent repressive activity of CAP2 on epigenetic regulators may be extrapolated to other cancer cells as it was also detected in HT29 and CC14 human colon cancer cells, in MeWo human melanoma cells as well as in U87 and U251 human glioma cells. In all these different human cancer cells, CAP2 (at 0.5 µM) modulated the expression of ZMYND8, SMARCAL1, TBLIXR1, SETD6 and TAF5Ls (Table 15).

Ls174T cells = assay: Clonal spheroid assay, Ls174T; details: Homo sapiens, LS174T, 16 h, read-out: IC50, number of stem cell-derived spheroids
Procedure: Cells were treated with different concentrations of compounds for 16h in 2D adherent culture, washed, harvested and plated in suspension with serum-free DMEM-F12 media with B27 supplement (1:50 dilution) at 1 cell/well in 96-well format in triplicates. Plated cells were monitored to ensure the presence of single cells in each well and spheroids counted and photographed after 10 days for each round.
To directly test for a long-lasting repression of WNT-TCF targets by CAP2 clonogenic properties of cancer stem cells were tested. DLD1 and LS174T cells were first treated with CAP2 in 2D culture in vitro followed by removal of the drug, washing with PBS, and plating under non-adherent 3D conditions for clonal spheroid growth in the absence of the drug. After primary spheroid growth, the spheroids were dissociated and replated as single cells for secondary and subsequent clonogenic spheroid formation, also in the absence of the compound of the invention. As negative control DMSO-treatment was used.

WNT-TCF targets [2] = assay: Epistatic rescue with TCF^VP16, DLD1; details: CAP2 5µM, 16h
Procedure: Lentivectors expressing a TCF4^VP16 protein in a vector independently expressing GFP, or vector alone, plus reporter plasmids were transfected into cells. 72h after transfection cells were visually checked for expression of GFP. Independent batches of cells with >80% GFP expression were chosen for further experimentation and treated with or without compounds in DMEM-F12 (with 2.5% FBS) for 16h and collected in Trizol.
If the effects of CAP2 on WNT-TCF targets were specific, an activated form of TCF should rescue the repression since CAP2 is likely to act downstream of the APC destruction complex since it was found using an N'Δ form of βCATENIN that is APC insensitive. To activate this last step of canonical WNT signaling, a fusion between TCF and the potent transactivation domain of the viral VP16 protein, TCF^VP16 (Melotti et al., 2014, supra), was used to directly and positively regulate TCF targets. […] Rescue of LGR5, cMYC and ASCL2 repression by CAP2 (at 5µM) was also observed although there was variability between the cell types, similarly to the repression of CDKN1A (Table 8), although in all cases it reversed its enhancement by CAP2 treatment (Table 8).

WNT-TCF targets [3] = assay: RT-qPCR gene expression in mCC11 primary colon cancer cells
Procedure: as §1
Primary colon cells CC14, CC36 and mCC11, colon cancer cell lines DLD1, HT29, Ls174T, melanoma cell line MeWo, glioblastoma cell lines U87 and U251, and the lung cancer cell line H358 were cultured in DMEM-F12 with 10% FBS under standard in nitro conditions.

[4] = DLD1 CAP2-treated tumor dissociated re-treated in vitro, 2.5µM
[5] = DLD1 CAP2-treated tumor dissociated re-treated in vitro, 5µM
[6] = DLD1 control tumor dissociated treated in vitro, 2.5µM
[7] = DLD1 control tumor dissociated treated in vitro, 5µM
[8] = 1.25µM, 16h, batch 3, vs DMSO=1

## CC1=C(C)C(=O)O[C@@H]([C@](C)(O)[C@]2(O)CC[C@@]3(O)[C@@H]4CC=C5CC=CC(=O)[C@]5(C)[C@H]4CC[C@]23C)C1 [CAP2]
WNT-TCF targets [1]; [4]
  ASCL2 expression: 0.05
  AXIN2 expression: 0.4
  LEF1 expression: 0.4
  LGR5 expression: 0.6
  cMYC expression: 0.2
WNT-TCF targets [1]; [5]
  ASCL2 expression: 0.1
  AXIN2 expression: 0.3
  LEF1 expression: 0.3
  LGR5 expression: 0.3
  cMYC expression: 0.1
WNT-TCF targets [1]; [6]
  ASCL2 expression: 0.1
  AXIN2 expression: 0.6
  LEF1 expression: 0.4
  LGR5 expression: 0.7
  cMYC expression: 0.3
WNT-TCF targets [1]; [7]
  ASCL2 expression: 0.1
  AXIN2 expression: 0.6
  LEF1 expression: 0.3
  LGR5 expression: 0.4
  cMYC expression: 0.3
Epigenetic regulators
  EED expression: 0.2
  SETD6 expression: 0.3
  SMARCAL1 expression: 0.2
  TAF5L expression: 0.5
  TBL1XR1 expression: 0.2
  ZMYND8 expression: 0.1
Ls174T cells
  IC50: < 1250 nM
WNT-TCF targets [2]
  ASCL2 expression, TCF^VP16+ CAP2 / control + CAP2: 1.5
  AXIN2 expression, TCF^VP16+ CAP2 / control + CAP2: 3.4
  CDKN1A expression, TCF^VP16+ CAP2 / control + CAP2: 0.4
  LGR5 expression, TCF^VP16+ CAP2 / control + CAP2: 1.4
  cMYC expression, TCF^VP16+ CAP2 / control + CAP2: 0.8
WNT-TCF targets [3]; [8]
  AXIN2 expression: 0.6
  LGR5 expression: 0.8
WNT-TCF targets [3]; 2.5µM, 16h, batch 3, vs DMSO=1
  AXIN2 expression: 0.5
  LGR5 expression: 0.3
WNT-TCF targets [3]; 5µM, 16h, batch 3, vs DMSO=1
  AXIN2 expression: 0.3
  LGR5 expression: 0.1
WNT-TCF targets [3]; 10µM, 16h, batch 3, vs DMSO=1
  AXIN2 expression: 0.3
  LGR5 expression: 0.04
WNT-TCF targets [3]; Table 7, 1.25µM, vs DMSO=1
  ASCL2 expression: 0.3
  AXIN2 expression: 0.6
  CDKN1A expression: 1.4
  LEF1 expression: 0.3
  LGR5 expression: 0.8
  cMYC expression: 0.5
WNT-TCF targets [3]; Table 7, 2.5µM, vs DMSO=1
  ASCL2 expression: 0.2
  AXIN2 expression: 0.5
  CDKN1A expression: 2.7
  LEF1 expression: 0.4
  LGR5 expression: 0.3
  cMYC expression: 0.3
WNT-TCF targets [3]; Table 7, 5µM, vs DMSO=1
  ASCL2 expression: 0.1
  AXIN2 expression: 0.3
  CDKN1A expression: 6.5
  LEF1 expression: 0.5
  LGR5 expression: 0.1
  cMYC expression: 0.1
WNT-TCF targets [3]; Table 7, 10µM, vs DMSO=1
  ASCL2 expression: 0.02
  AXIN2 expression: 0.3
  CDKN1A expression: 5.3
  LEF1 expression: 0.6
  LGR5 expression: 0.04
  cMYC expression: 0.1
